{"source": "ChEMBL document CHEMBL5244255", "about": "“An insight on medicinal attributes of 1,2,4-triazoles” (Eur J Med Chem, 2020)", "key": {"[1]": {"system": "Mycobacterium tuberculosis", "experiment": "Antimycobacterial activity against Mycobacterium tuberculosis H37Rv measured after 21 days", "type": "functional", "conditions": "504 h, time 21 day"}, "[2]": {"system": "Plasmodium falciparum", "experiment": "Antimalarial activity against Plasmodium falciparum", "type": "functional, organism-based"}, "[3]": {"system": "Candida albicans", "experiment": "Antifungal activity against Candida albicans Y0109 assessed as fungal growth inhibition", "type": "functional"}, "[4]": {"system": "Staphylococcus aureus", "experiment": "Antibacterial activity against Staphylococcus aureus assessed as bacterial growth inhibition incubated for 16 hrs", "type": "functional"}, "[5]": {"system": "Mycobacterium tuberculosis", "experiment": "Antimycobacterial activity against Mycobacterium tuberculosis H37Rv measured after 8 to 9 days", "type": "functional", "conditions": "time 8-9 day"}, "[6]": {"experiment": "Inhibition of Mycobacterium tuberculosis shikimate dehydrogenase"}, "[7]": {"system": "Xanthomonas oryzae pv. oryzae", "experiment": "Antibacterial activity against Xanthomonas oryzae pv. oryzae assessed as bacterial growth inhibition", "type": "functional, organism-based"}, "[8]": {"system": "Leishmania major", "experiment": "Antileishmanial activity against promastigotes stage of Leishmania major", "type": "functional, organism-based"}, "[9]": {"system": "MDA-MB-231", "experiment": "Antiproliferative activity against human MDA-MB-231 cells assessed as cell growth inhibition by MTT assay", "type": "functional, cell-based"}, "[10]": {"system": "Mycobacterium tuberculosis", "experiment": "Antimycobacterial activity against Mycobacterium tuberculosis H37Rv measured […] by MABA assay", "type": "functional"}, "[11]": {"system": "Mycobacterium tuberculosis", "experiment": "Potency index, ratio of test compound MIC to Pyrazinamide MIC for antimycobacterial activity against Mycobacterium tuberculosis H37Rv", "type": "functional"}, "[12]": {"system": "Mycobacterium tuberculosis", "experiment": "Antimycobacterial activity against Mycobacterium tuberculosis H37Rv", "type": "functional"}, "[13]": {"system": "BT-20", "experiment": "Anticancer activity against human BT-20 cells assessed as cell growth inhibition incubated for 48 hrs by MTT assay", "type": "functional, cell-based", "conditions": "BT-20, 48 h"}, "[14]": {"system": "DU-145", "experiment": "Anticancer activity against human DU-145 cells assessed as cell growth inhibition incubated for 48 hrs by MTT assay", "type": "functional, cell-based", "conditions": "DU-145, 48 h"}, "[15]": {"system": "A549", "experiment": "Anticancer activity against human A549 cells assessed as cell growth inhibition incubated for 48 hrs by MTT assay", "type": "functional, cell-based", "conditions": "A549, 48 h"}, "[16]": {"experiment": "Anticancer activity against human SK-MEL-128 cells assessed as cell growth inhibition incubated for 48 hrs by MTT assay", "type": "functional, cell-based", "conditions": "SK-MEL-128, 48 h"}, "[17]": {"conditions": "Plasmodium falciparum, read-out: IC50"}}, "note": "“And” between values parts separate entries of the source, which are not always exact repeats. Identical values can stand only once.", "data": [{"compound": "CCCCCCCCCNC(=O)Cc1nnc2c3ccccc3cnn12", "values": [{"measurement": "MIC", "setting": "[1]", "value": 0.5, "unit": "µg/mL"}]}, {"compound": "C#Cc1nnc2c3ccccc3cnn12", "values": [{"measurement": "MIC", "setting": "[1]", "value": 0.5, "unit": "µg/mL"}]}, {"compound": "Cc1ccc(-c2cc(-c3c(C)nn(-c4ccccc4)c3-n3cncn3)n3c(c2)nc2ccccc23)cc1", "values": [{"measurement": "IC50", "setting": "[2]; [17]", "value": 0.041, "unit": "µg/mL"}]}, {"compound": "O=C(OC1CCN(CC(O)(Cn2cncn2)c2ccc(F)cc2F)CC1)C(F)(F)F", "note": "(stereo not drawn)", "values": [{"measurement": "MIC80", "setting": "[3]", "value": 9, "unit": "nM"}]}, {"compound": "COc1ccc(/C=N/n2c(S)nnc2CNC(=O)c2ccc(C)cc2)cc1", "values": [{"measurement": "MIC", "setting": "[4]", "value": 3.12, "unit": "µg/mL"}]}, {"compound": "Clc1ccc(-c2nnc3sc(COc4ccc(Br)cc4)nn23)cc1", "values": [{"measurement": "MIC", "setting": "[5]", "value": 6.82, "unit": "µg/mL"}, {"measurement": "IC50", "setting": "[6]", "value": 6.82, "unit": "µg/mL"}]}, {"compound": "O=C(CSc1nnc(C2CCN(c3ncnc4ccccc34)CC2)n1-c1ccccc1)Nc1cccc(F)c1", "values": [{"measurement": "EC50", "setting": "[7]", "value": 34.5, "unit": "µg/mL"}]}, {"compound": "CCCC(=O)OC1CCN(CC(O)(Cn2cncn2)c2ccc(F)cc2F)CC1", "note": "(stereo not drawn)", "values": [{"measurement": "MIC80", "setting": "[3]", "value": 9, "unit": "nM"}]}, {"compound": "C[C@@H]1[C@H](O)[C@@H](C)/C=C/C=C/C=C/C=C/C=C/C=C/C=C/[C@H](O[C@@H]2O[C@H](C)[C@@H](O)[C@H](N)[C@@H]2O)C[C@@H]2O[C@](O)(C[C@@H](O)C[C@@H](O)[C@H](O)CC[C@@H](O)C[C@@H](O)CC(=O)O[C@H]1C)C[C@H](O)[C@H]2C(=O)O", "note": "[AMPHOTERICIN B]", "values": [{"measurement": "IC50", "setting": "[8]", "value": 0.0472, "unit": "µg/mL"}]}, {"compound": "C=C(CCCC)C(=O)OC1CCN(CC(O)(Cn2cncn2)c2ccc(F)cc2F)CC1", "note": "(stereo not drawn)", "values": [{"measurement": "MIC80", "setting": "[3]", "value": 9, "unit": "nM"}]}, {"compound": "Cc1nn(-c2ccccc2)c(-n2cncn2)c1-c1cc(-c2ccc(F)cc2)cc2nc3ccccc3n12", "values": [{"measurement": "IC50", "setting": "[2]", "value": 0.041, "unit": "µg/mL"}, {"measurement": "IC50", "setting": "[2]; [17]", "value": 0.041, "unit": "µg/mL"}]}, {"compound": "Cc1nn(-c2ccccc2)c(=O)n1-n1c(-c2cc3ccccc3oc2=O)cs/c1=N\\c1ccc(Cl)cc1", "values": [{"measurement": "IC50", "setting": "[9]", "value": 0.16, "unit": "µg/mL"}]}, {"compound": "O=[N+]([O-])c1ccc(C2=Nn3c(nnc3-c3ccnc(F)c3)CC2)cc1", "values": [{"measurement": "MIC", "setting": "[5]", "value": 0.25, "unit": "µg/mL"}, {"measurement": "IC50", "setting": "[6]", "value": 73.57, "unit": "µg/mL"}]}, {"compound": "O=C(CSc1nnc(C2CCN(c3ncnc4ccccc34)CC2)n1-c1ccccc1)Nc1ccc(F)cc1F", "values": [{"measurement": "EC50", "setting": "[7]", "value": 34.5, "unit": "µg/mL"}]}, {"compound": "CCC(=O)OC1CCN(CC(O)(Cn2cncn2)c2ccc(F)cc2F)CC1", "note": "(stereo not drawn)", "values": [{"measurement": "MIC80", "setting": "[3]", "value": 9, "unit": "nM"}]}, {"compound": "Brc1ccc(/C=C/c2nnc3c4ccccc4cnn23)cc1", "values": [{"measurement": "MIC", "setting": "[1]", "value": 0.5, "unit": "µg/mL"}]}, {"compound": "COc1ccc(-n2ncn(Cc3cn(Cc4cc(=O)oc5ccc6ccccc6c45)nn3)c2=O)cc1", "values": [{"measurement": "MIC", "setting": "[10]", "value": 1.6, "unit": "µg/mL"}, {"measurement": "Ratio", "setting": "[11]", "value": 2}]}, {"compound": "CC(C)=CCC/C(C)=C/COc1ccc(/C=C/c2nnc3c4ccccc4cnn23)cc1", "values": [{"measurement": "MIC", "setting": "[1]", "value": 0.5, "unit": "µg/mL"}]}, {"compound": "Brc1ccc(OCc2nn3c(-c4ccc(Br)cc4)nnc3s2)cc1", "values": [{"measurement": "MIC", "setting": "[5]", "value": 14.4, "unit": "µg/mL"}, {"measurement": "IC50", "setting": "[6]", "value": 14.42, "unit": "µg/mL"}]}, {"compound": "Cc1ccc(C(=O)NCc2nnc(S)n2/N=C/c2ccc([N+](=O)[O-])cc2)cc1", "values": [{"measurement": "MIC", "setting": "[4]", "value": 3.12, "unit": "µg/mL"}]}, {"compound": "CCCCCCCC(=O)OC1CCN(CC(O)(Cn2cncn2)c2ccc(F)cc2F)CC1", "note": "(stereo not drawn)", "values": [{"measurement": "MIC80", "setting": "[3]", "value": 9, "unit": "nM"}]}, {"compound": "CC(=O)OC1CCN(CC(O)(Cn2cncn2)c2ccc(F)cc2F)CC1", "note": "(stereo not drawn)", "values": [{"measurement": "MIC80", "setting": "[3]", "value": 9, "unit": "nM"}]}, {"compound": "Cc1nn(-c2ccccc2)c(-n2cncn2)c1-c1cc(-c2cc[nH]c2)cc2nc3ccccc3n12", "values": [{"measurement": "IC50", "setting": "[2]", "value": "0.092 µg/mL and 0.041 µg/mL"}]}, {"compound": "Cc1nn(-c2ccccc2)c(-n2cncn2)c1-c1cc(-c2ccc(-c3cccs3)cc2)cc2nc3ccccc3n12", "values": [{"measurement": "IC50", "setting": "[2]; [17]", "value": 0.041, "unit": "µg/mL"}]}, {"compound": "Cc1ccc(C(=O)NCc2nnc(S)n2/N=C/c2ccc(Cl)cc2)cc1", "values": [{"measurement": "MIC", "setting": "[4]", "value": 3.12, "unit": "µg/mL"}]}, {"compound": "OC1(c2nnc(-c3ccncc3)[nH]2)CCCC1", "values": [{"measurement": "MIC", "setting": "[12]", "value": 0.59, "unit": "µg/mL"}]}, {"compound": "O=C(CCl)OC1CCN(CC(O)(Cn2cncn2)c2ccc(F)cc2F)CC1", "note": "(stereo not drawn)", "values": [{"measurement": "MIC80", "setting": "[3]", "value": 9, "unit": "nM"}]}, {"compound": "O=c1cc(Cn2cc(Cn3cnn(-c4ccccc4)c3=O)nn2)c2c(ccc3ccccc32)o1", "values": [{"measurement": "MIC", "setting": "[10]", "value": 1.6, "unit": "µg/mL"}, {"measurement": "Ratio", "setting": "[11]", "value": 2}]}, {"compound": "Nn1c(Cc2ccc(Cl)cc2)nn(CC(=O)NNC(=O)c2cc3cc(Cl)cc(Cl)c3oc2=O)c1=O", "values": [{"measurement": "IC50", "setting": "[13]", "value": 3.1, "unit": "µg/mL"}, {"measurement": "IC50", "setting": "[14]", "value": 3.1, "unit": "µg/mL"}, {"measurement": "IC50", "setting": "[15]", "value": 3.1, "unit": "µg/mL"}, {"measurement": "IC50", "setting": "[16]", "value": 3.1, "unit": "µg/mL"}]}, {"compound": "O=C(CSc1nnc(C2CCN(c3ncnc4ccccc34)CC2)n1-c1ccccc1)Nc1cccc([N+](=O)[O-])c1", "values": [{"measurement": "EC50", "setting": "[7]", "value": 34.5, "unit": "µg/mL"}]}, {"compound": "COc1ccc(-n2ncn(Cc3cn(Cc4cc(=O)oc5ccc(C(C)(C)C)cc45)nn3)c2=O)cc1", "values": [{"measurement": "MIC", "setting": "[10]", "value": 1.6, "unit": "µg/mL"}, {"measurement": "Ratio", "setting": "[11]", "value": 2}]}, {"compound": "CCCCCCCCCCCC(=O)OC1CCN(CC(O)(Cn2cncn2)c2ccc(F)cc2F)CC1", "note": "(stereo not drawn)", "values": [{"measurement": "MIC80", "setting": "[3]", "value": 9, "unit": "nM"}]}, {"compound": "CCN(CC)c1ccc2cc(C(=O)NNC(=O)Cn3nc(Cc4ccc(Cl)c(Cl)c4)n(N)c3=O)c(=O)oc2c1", "values": [{"measurement": "IC50", "setting": "[13]", "value": 3.1, "unit": "µg/mL"}, {"measurement": "IC50", "setting": "[14]", "value": 3.1, "unit": "µg/mL"}, {"measurement": "IC50", "setting": "[15]", "value": 3.1, "unit": "µg/mL"}, {"measurement": "IC50", "setting": "[16]", "value": 3.1, "unit": "µg/mL"}]}, {"compound": "CC1CCC(O)(c2nnc(-c3ccncc3)[nH]2)CC1", "note": "(stereo not drawn)", "values": [{"measurement": "MIC", "setting": "[12]", "value": 0.59, "unit": "µg/mL"}]}, {"compound": "CC1CC(C)(C)CC(O)(c2nnc(-c3ccncc3)[nH]2)C1", "note": "(stereo not drawn)", "values": [{"measurement": "MIC", "setting": "[12]", "value": 0.59, "unit": "µg/mL"}]}]}
